In publication PMC4730229, “Benzobisthiazoles Represent a Novel Scaffold for Kinase Inhibitors of CLK Family Members” (Biochemistry, 2015):

Tests used:
Assay in all cases: Kinase profiling (radioactive filter binding)
Assay type in all cases: biochemical
Conditions in all cases: 1 uM compound
[1] = molecular target: Aurora A (Homo sapiens, UniProt O14965)
Procedure: (§1) 3A5 and 5E4 were sent to the International Centre for Kinase Profiling at the MRC Protein Phosphorylation and Ubiquitylation Unit for profiling (as described in ref ([17])). Compounds were profiled against 140 kinases using a radioactive ([^33P]ATP) filter binding assay at a concentration of 1 μM. Results were obtained as inhibition of kinase activity and are listed in Supplementary Table 2.

[2] = molecular target: BRSK2 (Homo sapiens, UniProt Q8IWQ3)
Procedure: as §1

[3] = molecular target: CDK2-Cyclin A (Homo sapiens, UniProt P24941)
Procedure: as §1

[4] = molecular target: CHK2 (Homo sapiens, UniProt O96017)
Chain of CHK2 (O96017 whole entry): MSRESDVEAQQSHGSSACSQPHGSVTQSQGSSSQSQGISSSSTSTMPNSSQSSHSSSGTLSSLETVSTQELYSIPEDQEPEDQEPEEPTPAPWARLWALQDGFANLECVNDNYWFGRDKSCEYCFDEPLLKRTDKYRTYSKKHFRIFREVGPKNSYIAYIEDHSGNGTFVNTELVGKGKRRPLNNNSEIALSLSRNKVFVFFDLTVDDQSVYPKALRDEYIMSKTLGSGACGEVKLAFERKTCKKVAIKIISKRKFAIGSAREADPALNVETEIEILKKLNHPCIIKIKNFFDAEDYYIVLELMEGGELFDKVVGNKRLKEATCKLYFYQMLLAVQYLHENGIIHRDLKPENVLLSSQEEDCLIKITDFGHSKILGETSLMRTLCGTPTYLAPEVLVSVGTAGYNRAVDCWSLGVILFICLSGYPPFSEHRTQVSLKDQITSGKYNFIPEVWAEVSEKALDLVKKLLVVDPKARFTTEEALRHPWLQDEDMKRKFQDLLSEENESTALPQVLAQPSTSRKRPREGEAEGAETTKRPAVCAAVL
Procedure: as §1

[5] = molecular target: CK1δ (Homo sapiens, UniProt P48730)
Procedure: as §1

[6] = molecular target: EIF2AK3 (Homo sapiens, UniProt Q9NZJ5)
Chain of EIF2AK3 (Q9NZJ5 30-1116): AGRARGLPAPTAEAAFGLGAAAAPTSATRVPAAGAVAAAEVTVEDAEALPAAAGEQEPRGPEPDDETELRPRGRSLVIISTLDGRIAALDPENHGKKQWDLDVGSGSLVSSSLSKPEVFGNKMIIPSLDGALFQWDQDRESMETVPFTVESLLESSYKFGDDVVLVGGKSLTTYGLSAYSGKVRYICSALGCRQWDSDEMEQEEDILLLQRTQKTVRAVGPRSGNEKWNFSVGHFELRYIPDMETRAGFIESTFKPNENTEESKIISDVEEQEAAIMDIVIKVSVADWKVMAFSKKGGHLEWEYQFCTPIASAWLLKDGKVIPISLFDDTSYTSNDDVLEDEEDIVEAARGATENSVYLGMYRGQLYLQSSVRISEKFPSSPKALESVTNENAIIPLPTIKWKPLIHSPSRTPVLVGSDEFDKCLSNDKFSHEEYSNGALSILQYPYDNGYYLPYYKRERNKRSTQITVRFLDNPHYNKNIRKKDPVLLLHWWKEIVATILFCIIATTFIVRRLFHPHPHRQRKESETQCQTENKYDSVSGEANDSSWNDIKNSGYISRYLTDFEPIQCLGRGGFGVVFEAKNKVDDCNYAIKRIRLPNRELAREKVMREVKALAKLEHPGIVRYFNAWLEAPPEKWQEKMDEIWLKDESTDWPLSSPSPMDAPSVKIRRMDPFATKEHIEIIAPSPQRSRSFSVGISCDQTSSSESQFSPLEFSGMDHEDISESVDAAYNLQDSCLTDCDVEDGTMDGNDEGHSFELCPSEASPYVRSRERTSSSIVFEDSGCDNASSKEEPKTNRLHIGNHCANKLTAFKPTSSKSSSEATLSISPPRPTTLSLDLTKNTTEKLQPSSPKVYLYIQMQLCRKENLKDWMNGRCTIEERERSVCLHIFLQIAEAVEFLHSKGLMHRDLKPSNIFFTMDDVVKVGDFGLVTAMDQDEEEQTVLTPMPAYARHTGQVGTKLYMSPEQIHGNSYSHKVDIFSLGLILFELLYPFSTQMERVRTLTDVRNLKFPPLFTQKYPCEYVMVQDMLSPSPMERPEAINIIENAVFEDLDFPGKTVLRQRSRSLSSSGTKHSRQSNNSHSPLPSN
Procedure: as §1

[7] = molecular target: EPH-A2 (Homo sapiens, UniProt P29317)
Chain of EPH-A2 (P29317 24-976): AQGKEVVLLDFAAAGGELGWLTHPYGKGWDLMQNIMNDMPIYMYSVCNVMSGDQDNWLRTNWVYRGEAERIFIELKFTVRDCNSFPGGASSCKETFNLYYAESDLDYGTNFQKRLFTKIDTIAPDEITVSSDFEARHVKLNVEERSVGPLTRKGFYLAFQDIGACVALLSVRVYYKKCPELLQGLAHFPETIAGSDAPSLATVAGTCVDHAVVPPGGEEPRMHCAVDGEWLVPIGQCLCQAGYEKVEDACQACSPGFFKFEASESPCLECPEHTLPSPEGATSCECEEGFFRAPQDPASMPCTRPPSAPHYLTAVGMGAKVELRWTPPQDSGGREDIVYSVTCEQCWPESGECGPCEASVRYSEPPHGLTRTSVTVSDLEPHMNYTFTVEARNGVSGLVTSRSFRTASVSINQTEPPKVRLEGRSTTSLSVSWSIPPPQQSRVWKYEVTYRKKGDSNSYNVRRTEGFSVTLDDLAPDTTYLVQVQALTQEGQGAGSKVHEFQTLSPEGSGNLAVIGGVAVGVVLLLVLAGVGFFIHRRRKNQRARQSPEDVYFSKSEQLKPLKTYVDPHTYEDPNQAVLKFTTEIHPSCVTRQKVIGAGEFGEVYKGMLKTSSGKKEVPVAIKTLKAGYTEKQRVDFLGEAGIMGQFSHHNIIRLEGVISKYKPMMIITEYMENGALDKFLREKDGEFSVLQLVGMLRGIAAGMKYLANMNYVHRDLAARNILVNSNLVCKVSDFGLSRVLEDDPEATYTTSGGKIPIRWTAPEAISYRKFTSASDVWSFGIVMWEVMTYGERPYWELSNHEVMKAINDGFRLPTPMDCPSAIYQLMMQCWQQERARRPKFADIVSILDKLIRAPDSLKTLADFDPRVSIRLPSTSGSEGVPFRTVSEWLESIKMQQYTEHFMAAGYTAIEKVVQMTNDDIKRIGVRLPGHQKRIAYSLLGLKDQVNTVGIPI
Procedure: as §1

[8] = molecular target: ERK2 (Homo sapiens, UniProt P28482)
Procedure: as §1

[9] = molecular target: ERK5 (Homo sapiens, UniProt Q13164)
Procedure: as §1

[10] = molecular target: FGF-R1 (Homo sapiens, UniProt P11362)
Procedure: as §1

[11] = molecular target: GCK (Homo sapiens, UniProt Q12851)
Procedure: as §1

[12] = molecular target: IGF-1R (Homo sapiens, UniProt P08069)
Procedure: as §1

[13] = molecular target: IKKe (Homo sapiens, UniProt Q14164)
Procedure: as §1

[14] = molecular target: IRAK1 (Homo sapiens, UniProt P51617)
Procedure: as §1

[15] = molecular target: JAK2 (Homo sapiens, UniProt O60674)
Procedure: as §1

[16] = molecular target: JNK1 (Homo sapiens, UniProt P45983)
Procedure: as §1

[17] = molecular target: LKB1 (Homo sapiens, UniProt Q15831)
Chain of LKB1 (Q15831 whole entry): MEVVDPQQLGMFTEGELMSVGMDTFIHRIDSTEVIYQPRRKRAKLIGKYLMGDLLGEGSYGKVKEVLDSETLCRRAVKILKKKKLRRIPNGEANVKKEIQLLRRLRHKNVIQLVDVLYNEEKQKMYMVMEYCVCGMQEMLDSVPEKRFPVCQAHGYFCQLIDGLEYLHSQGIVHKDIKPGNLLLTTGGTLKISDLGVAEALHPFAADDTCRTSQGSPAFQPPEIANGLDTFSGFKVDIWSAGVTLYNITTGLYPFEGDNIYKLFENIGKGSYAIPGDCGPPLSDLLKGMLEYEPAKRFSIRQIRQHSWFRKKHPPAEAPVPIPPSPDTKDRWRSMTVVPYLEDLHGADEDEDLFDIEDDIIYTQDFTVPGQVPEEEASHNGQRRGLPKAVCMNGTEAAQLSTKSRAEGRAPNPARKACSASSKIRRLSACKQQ
Chain of LKB1 (Q7RTN6 whole entry partner): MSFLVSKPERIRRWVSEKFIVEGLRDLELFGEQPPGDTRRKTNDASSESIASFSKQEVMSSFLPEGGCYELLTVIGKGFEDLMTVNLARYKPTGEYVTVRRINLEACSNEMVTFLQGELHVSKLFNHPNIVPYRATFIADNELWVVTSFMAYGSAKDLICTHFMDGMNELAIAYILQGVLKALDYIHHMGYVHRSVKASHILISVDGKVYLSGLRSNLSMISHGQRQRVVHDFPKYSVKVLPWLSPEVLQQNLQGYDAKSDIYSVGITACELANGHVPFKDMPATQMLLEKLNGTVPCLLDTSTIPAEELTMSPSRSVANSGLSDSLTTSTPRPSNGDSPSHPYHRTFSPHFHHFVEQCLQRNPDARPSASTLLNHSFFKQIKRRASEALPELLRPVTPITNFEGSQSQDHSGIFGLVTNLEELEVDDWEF
Chain of LKB1 (Q9Y376 whole entry partner): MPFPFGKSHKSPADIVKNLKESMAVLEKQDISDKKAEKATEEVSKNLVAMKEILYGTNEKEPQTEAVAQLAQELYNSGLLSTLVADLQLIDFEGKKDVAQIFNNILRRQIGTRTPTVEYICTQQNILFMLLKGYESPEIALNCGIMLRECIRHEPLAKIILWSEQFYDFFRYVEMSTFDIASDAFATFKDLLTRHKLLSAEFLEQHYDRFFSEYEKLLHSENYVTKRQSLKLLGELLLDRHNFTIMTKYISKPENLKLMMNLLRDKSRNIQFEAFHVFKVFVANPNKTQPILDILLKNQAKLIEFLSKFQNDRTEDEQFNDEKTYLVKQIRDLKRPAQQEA
Procedure: as §1

[18] = molecular target: MAP4K3 (Homo sapiens, UniProt Q8IVH8)
Procedure: as §1

[19] = molecular target: MAPKAP-K3 (Homo sapiens, UniProt Q16644)
Procedure: as §1

[20] = molecular target: MARK3 (Homo sapiens, UniProt P27448)
Procedure: as §1

[21] = molecular target: MELK (Homo sapiens, UniProt Q14680)
Procedure: as §1

[22] = molecular target: MKK1 (Homo sapiens, UniProt Q02750)
Procedure: as §1

[23] = molecular target: MKK2 (Homo sapiens, UniProt P36507)
Procedure: as §1

[24] = molecular target: MST2 (Homo sapiens, UniProt Q13188)
Procedure: as §1

[25] = molecular target: MST4 (Homo sapiens, UniProt Q9P289)
Procedure: as §1

[26] = molecular target: NEK6 (Homo sapiens, UniProt Q9HC98)
Procedure: as §1

[27] = molecular target: PAK2 (Homo sapiens, UniProt Q13177)
Procedure: as §1

[28] = molecular target: PAK4 (Homo sapiens, UniProt O96013)
Procedure: as §1

[29] = molecular target: PDK1 (Homo sapiens, UniProt O15530)
Procedure: as §1

[30] = molecular target: PIM3 (Homo sapiens, UniProt Q86V86)
Procedure: as §1

[31] = molecular target: PKBb (Homo sapiens, UniProt P31751)
Procedure: as §1

[32] = molecular target: PKCz (Homo sapiens, UniProt Q05513)
Procedure: as §1

[33] = molecular target: PLK1 (Homo sapiens, UniProt P53350)
Procedure: as §1

[34] = molecular target: PRK2 (Homo sapiens, UniProt Q16513)
Procedure: as §1

[35] = molecular target: SGK1 (Homo sapiens, UniProt O00141)
Procedure: as §1

[36] = molecular target: SRPK1 (Homo sapiens, UniProt Q96SB4)
Procedure: as §1

[37] = molecular target: SmMLCK (Homo sapiens, UniProt Q15746)
Procedure: as §1

[38] = molecular target: TESK1 (Homo sapiens, UniProt Q15569)
Procedure: as §1

[39] = molecular target: TGFBR1 (Homo sapiens, UniProt P36897)
Chain of TGFBR1 (P36897 34-503): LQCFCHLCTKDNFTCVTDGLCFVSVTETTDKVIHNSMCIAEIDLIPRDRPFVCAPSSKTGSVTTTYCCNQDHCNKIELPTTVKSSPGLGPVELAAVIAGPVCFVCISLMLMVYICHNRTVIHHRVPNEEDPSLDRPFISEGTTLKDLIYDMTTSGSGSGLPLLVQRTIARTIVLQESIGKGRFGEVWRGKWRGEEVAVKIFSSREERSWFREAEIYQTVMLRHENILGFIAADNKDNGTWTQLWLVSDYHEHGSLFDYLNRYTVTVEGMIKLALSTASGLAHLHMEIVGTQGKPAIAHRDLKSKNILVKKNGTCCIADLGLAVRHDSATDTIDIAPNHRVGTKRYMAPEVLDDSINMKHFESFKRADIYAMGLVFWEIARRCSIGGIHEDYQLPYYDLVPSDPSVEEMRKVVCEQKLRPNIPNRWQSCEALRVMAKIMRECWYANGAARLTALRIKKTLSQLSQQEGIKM
Procedure: as §1

[40] = molecular target: ULK2 (Homo sapiens, UniProt Q8IYT8)
Procedure: as §1

[41] = molecular target: YES1 (Homo sapiens, UniProt P07947)
Chain of YES1 (P07947 whole entry): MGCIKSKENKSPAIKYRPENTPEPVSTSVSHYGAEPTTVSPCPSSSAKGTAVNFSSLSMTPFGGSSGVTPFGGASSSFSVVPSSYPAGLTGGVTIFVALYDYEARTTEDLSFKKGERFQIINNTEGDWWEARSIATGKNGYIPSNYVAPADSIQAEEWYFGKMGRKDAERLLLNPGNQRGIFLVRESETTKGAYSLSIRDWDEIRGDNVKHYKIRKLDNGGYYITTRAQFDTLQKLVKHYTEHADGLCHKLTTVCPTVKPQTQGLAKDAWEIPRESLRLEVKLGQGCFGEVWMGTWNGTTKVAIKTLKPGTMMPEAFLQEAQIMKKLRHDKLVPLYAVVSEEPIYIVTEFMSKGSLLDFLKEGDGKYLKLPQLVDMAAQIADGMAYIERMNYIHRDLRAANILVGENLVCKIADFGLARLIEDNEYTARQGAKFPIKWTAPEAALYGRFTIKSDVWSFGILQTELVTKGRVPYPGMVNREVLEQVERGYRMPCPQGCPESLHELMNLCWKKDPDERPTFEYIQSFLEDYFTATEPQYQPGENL
Procedure: as §1

[42] = molecular target: p38g MAPK (Homo sapiens, UniProt P53778)
Procedure: as §1

CSc1nc2ccc3nc(NC(=O)c4ccco4)sc3c2s1 [5E4, N-[7-(methylsulfanyl)[1,3]thiazolo[4,5-g][1,3]benzothiazol-2-yl]-2-furamide]
Aurora A activity in kinase profiling [1]: 107 | BRSK2 activity in kinase profiling [2]: 83 | CDK2-Cyclin A activity in kinase profiling [3]: 101 | CHK2 activity in kinase profiling [4]: 88 | CK1δ activity in kinase profiling [5]: 94 | EIF2AK3 activity in kinase profiling [6]: 84 | EPH-A2 activity in kinase profiling [7]: 162 | ERK2 activity in kinase profiling [8]: 112 | ERK5 activity in kinase profiling [9]: 39 | FGF-R1 activity in kinase profiling [10]: 109 | GCK activity in kinase profiling [11]: 24 | IGF-1R activity in kinase profiling [12]: 117 | IKKe activity in kinase profiling [13]: 102 | IRAK1 activity in kinase profiling [14]: 87 | JAK2 activity in kinase profiling [15]: 105 | JNK1 activity in kinase profiling [16]: 91 | LKB1 activity in kinase profiling [17]: 79 | MAP4K3 activity in kinase profiling [18]: 121 | MAPKAP-K3 activity in kinase profiling [19]: 86 | MARK3 activity in kinase profiling [20]: 83 | MELK activity in kinase profiling [21]: 71 | MKK1 activity in kinase profiling [22]: 85 | MKK2 activity in kinase profiling [23]: 121 | MST2 activity in kinase profiling [24]: 129 | MST4 activity in kinase profiling [25]: 93 | NEK6 activity in kinase profiling [26]: 91 | PAK2 activity in kinase profiling [27]: 97 | PAK4 activity in kinase profiling [28]: 74 | PDK1 activity in kinase profiling [29]: 88 | PIM3 activity in kinase profiling [30]: 95 | activity at 1 µM [31]: 121% | PKCz activity in kinase profiling [32]: 103 | PLK1 activity in kinase profiling [33]: 102 | PRK2 activity in kinase profiling [34]: 88 | SGK1 activity in kinase profiling [35]: 88 | SRPK1 activity in kinase profiling [36]: 81 | SmMLCK activity in kinase profiling [37]: 43 | TESK1 activity in kinase profiling [38]: 95 | TGFBR1 activity in kinase profiling [39]: 94 | ULK2 activity in kinase profiling [40]: 81 | YES1 activity in kinase profiling [41]: 110 | p38g MAPK activity in kinase profiling [42]: 105

Cc1nc2ccc3sc(NC(=O)c4ccc5ncsc5c4)nc3c2s1 [3A5, N-(2-methyl[1,3]thiazolo[5,4-e][1,3]benzothiazol-7-yl)-1,3-benzothiazole-6-carboxamide]
Aurora A activity in kinase profiling [1]: 127 | BRSK2 activity in kinase profiling [2]: 88 | CDK2-Cyclin A activity in kinase profiling [3]: 115 | CHK2 activity in kinase profiling [4]: 77 | CK1δ activity in kinase profiling [5]: 34 | EIF2AK3 activity in kinase profiling [6]: 119 | EPH-A2 activity in kinase profiling [7]: 134 | ERK2 activity in kinase profiling [8]: 109 | ERK5 activity in kinase profiling [9]: 39 | FGF-R1 activity in kinase profiling [10]: 149 | GCK activity in kinase profiling [11]: 90 | IGF-1R activity in kinase profiling [12]: 123 | IKKe activity in kinase profiling [13]: 107 | IRAK1 activity in kinase profiling [14]: 88 | JAK2 activity in kinase profiling [15]: 112 | JNK1 activity in kinase profiling [16]: 67 | LKB1 activity in kinase profiling [17]: 79 | MAP4K3 activity in kinase profiling [18]: 125 | MAPKAP-K3 activity in kinase profiling [19]: 81 | MARK3 activity in kinase profiling [20]: 91 | MELK activity in kinase profiling [21]: 69 | MKK1 activity in kinase profiling [22]: 72 | MKK2 activity in kinase profiling [23]: 115 | MST2 activity in kinase profiling [24]: 119 | MST4 activity in kinase profiling [25]: 90 | NEK6 activity in kinase profiling [26]: 104 | PAK2 activity in kinase profiling [27]: 92 | PAK4 activity in kinase profiling [28]: 84 | PDK1 activity in kinase profiling [29]: 93 | PIM3 activity in kinase profiling [30]: 88 | activity at 1 µM [31]: 125% | PKCz activity in kinase profiling [32]: 115 | PLK1 activity in kinase profiling [33]: 110 | PRK2 activity in kinase profiling [34]: 95 | SGK1 activity in kinase profiling [35]: 85 | SRPK1 activity in kinase profiling [36]: 56 | SmMLCK activity in kinase profiling [37]: 50 | TESK1 activity in kinase profiling [38]: 96 | TGFBR1 activity in kinase profiling [39]: 93 | ULK2 activity in kinase profiling [40]: 92 | YES1 activity in kinase profiling [41]: 112 | p38g MAPK activity in kinase profiling [42]: 107
